Reference: patent US20240318141A1, “MATURATION AGENT” (Orizuru Therapeutics, Inc., priority 2021, published 2024)
Values joined by “and” are separate entries in the source; they are usually repeats but may differ in a detail not shown here. Identical values can stand only once.

System: non-endocrine cells in insulin-producing cell population (QHJI-114s04 iPS cell line)
Experiment: Docetaxel treatment of cell population comprising insulin-producing cells, then extended culture in basal medium containing EGF (Example 4)
Format: cell-based, human
Conditions: for proportions of PDX1+/CHGA− and PDX1−/CHGA− cells after extended culture involving EGF: with respect to control cell population
Text: The differentiation of a QHJI-114s04 iPS cell line into an insulin-producing cell population was induced by the three-dimensional culture method using a bioreactor according to steps 1) to 6) described above and the previous report (Nature Biotechnology 2014; 32: 1121-1133). Specifically, the iPS cells were subjected to the first culture in a medium (DMEM/1% B-27 (INS+)/Penicillin Streptomycin/dimethyl sulfoxide) containing differentiation-inducing factors (GSK3β inhibitor, ROCK inhibitor and low dose of activin A) under conditions causing action of insulin, and subsequently subjected to the second culture in a medium (DMEM/1% B-27 (INS−)/Penicillin Streptomycin/dimethyl sulfoxide) containing a differentiation-inducing factor (low dose of activin A) under conditions causing no action of insulin to obtain a definitive endoderm cell population. […] The exchange from the bioreactor to the multiwell plate was carried out in step 6).
Marker protein expression (PDX1 and CHGA) in each cell population before the start of and after the completion of extended culture was measured by flow cytometry. Marker protein expression (NKX6.1, C-peptide (insulin), PDX1, and CHGA) in the cell population obtained 7 days after the start of step 6) was also measured by flow cytometry. Respective samples were collected by sampling from separate culture containers. The number of cells was measured in an automatic cell counter at the time of sample preparation for flow cytometry, and the total number of cells per well of the multiwell plate was calculated.

[1] = +Docetaxel 4 days from day 7 (1 μM), s6d11
[2] = +Docetaxel 4 days from day 7, after extended culture, EGF absent
[3] = +Docetaxel 4 days from day 7, after extended culture, EGF present
[4] = +Docetaxel 7 days from day 4 (1 μM), s6d11
[5] = +Docetaxel 7 days from day 4, after extended culture, EGF absent
[6] = +Docetaxel 7 days from day 4, after extended culture, EGF present

CC(=O)O[C@@]12CO[C@@H]1C[C@H](O)[C@@]1(C)C(=O)[C@H](O)C3=C(C)[C@@H](OC(=O)[C@H](O)[C@@H](NC(=O)OC(C)(C)C)c4ccccc4)C[C@@](O)([C@@H](OC(=O)c4ccccc4)[C@H]21)C3(C)C [Docetaxel, (−)-(1S,2S,3R,4S,5R,7S,8S,10R,13S)-4-Acetoxy-2-benzoyloxy-5,20-epoxy-1,7,10-trihydroxy-9-oxotax-11-en-13-yl (2R,3S)-3-tert-butoxycarbonylamido-2-hydroxy-3-phenylpropionate]
population exhibiting marked increase by extended culture involving EGF (table footnote) (+Docetaxel 4 days from day 7): No population exhibited marked increase by extended culture involving EGF | The number of cells CHGA+ [1]: 177 ×10^4 cells/well | The number of cells PDX+/CHGA− [1]: 0.7 ×10^4 cells/well | The number of cells PDX−/CHGA− [1]: 0.9 ×10^4 cells/well | Total number of cells [1]: 178 ×10^4 cells/well | The number of cells CHGA+ [2]: 132 ×10^4 cells/well | The number of cells PDX+/CHGA− [2]: 1.5 ×10^4 cells/well | The number of cells PDX−/CHGA− [2]: 6.3 ×10^4 cells/well | Total number of cells [2]: 140 ×10^4 cells/well | The number of cells CHGA+ [3]: 144 ×10^4 cells/well and 133 ×10^4 cells/well and 147 ×10^4 cells/well | The number of cells PDX+/CHGA− [3]: 1.1 ×10^4 cells/well and 1.3 ×10^4 cells/well and 1.2 ×10^4 cells/well | The number of cells PDX−/CHGA− [3]: 5.6 ×10^4 cells/well and 6.6 ×10^4 cells/well and 5.9 ×10^4 cells/well | Total number of cells [3]: 151 ×10^4 cells/well and 141 ×10^4 cells/well and 154 ×10^4 cells/well | proportions of PDX1+/CHGA− and PDX1−/CHGA− cells after extended culture involving EGF (+Docetaxel 4 days from day 7): drastically decreased | population exhibiting marked increase by extended culture involving EGF (table footnote) (+Docetaxel 7 days from day 4): No population exhibited marked increase by extended culture involving EGF | The number of cells CHGA+ [4]: 209 ×10^4 cells/well | The number of cells PDX+/CHGA− [4]: 0.4 ×10^4 cells/well | The number of cells PDX−/CHGA− [4]: 0.8 ×10^4 cells/well | Total number of cells [4]: 210 ×10^4 cells/well | The number of cells CHGA+ [5]: 126 ×10^4 cells/well | The number of cells PDX+/CHGA− [5]: 1.5 ×10^4 cells/well | The number of cells PDX−/CHGA− [5]: 5.0 ×10^4 cells/well | Total number of cells [5]: 132 ×10^4 cells/well | The number of cells CHGA+ [6]: 132 ×10^4 cells/well and 127 ×10^4 cells/well and 159 ×10^4 cells/well | The number of cells PDX+/CHGA− [6]: 0.8 ×10^4 cells/well and 1.5 ×10^4 cells/well | The number of cells PDX−/CHGA− [6]: 4.7 ×10^4 cells/well and 2.9 ×10^4 cells/well and 4.8 ×10^4 cells/well | Total number of cells [6]: 138 ×10^4 cells/well and 165 ×10^4 cells/well | proportions of PDX1+/CHGA− and PDX1−/CHGA− cells after extended culture involving EGF (+Docetaxel 7 days from day 4): drastically decreased
